Values joined by “and” are separate entries in the source; they are usually repeats but may differ in a detail not shown here. Equal values may be shown once.
Tests used:
[1] = test system: rat passive peritoneal anaphylaxis; assay: Rat passive peritoneal anaphylaxis (PPA): histamine, SRS-A and dye in peritoneal fluid; type: in vivo; conditions: mean ± SEM, 5-7 rats per group
Source text: (a) inhibit rat passive peritoneal anaphylaxis; and
(a) Rat passive peritoneal anaphylaxis (PPA)
The method has been described previously (Ross, Janet W., Smith, H. and Spicer, Barbara A. Increased vascular permeability during passive peritoneal anaphylaxis in the rat, Int Arch Allergy appl Immun, 51, 226, 1976).
(§1) Charles River Sprague Dawley male rats of 225-275 g and Dunkin Hartley male white guinea pigs of 250-300 g were used.
This was raised in rats in one of two ways.
Charles River Sprague Dawley male rats of 225 to 275 g were given subcutaneous injections of 10 μg of ovalbumin (chicken egg albumin; crystallised and lyophilised, grade 3, Sigma London), in 0.5 ml of a suspension prepared by adding 1 ml of a 0.1 mg/ml solution of ovalbumin, in isotonic saline, to 4 ml of a 1% suspension of aluminium hydroxide in saline (Alhydrogel; Miles Laboratories, England; diluted 1:1 with isotonic saline). The rats were bled on day 10.
Charles River Sprague Dawley male rats of 225 to 300 g were given intraperitoneal injections of 0.5 ml of Bordetella pertussis vaccine (4×10^10 organisms/ml Burroughs Wellcome, London) and subcutaneous injections of 0.5 ml of an emulsion of 100 mg of ovalbumin of 2 ml of isotonic saline and 3 ml of Freund's incomplete adjuvant (Pifco Laboratories, Michigan USA). The rats were bled on day 18.
The rats were bled by cardiac puncture, the blood was pooled, from groups of rats treated similarly, and the serum separated, stored at -20° and thawed only once before use. The serum sensitised rats for passive cutaneous anaphylaxis (carried out as described: Spicer, Barbara A; Ross, Janet W and Smith, H; Inhibition of immediate hypersensitivity reactions in the rat by disodium cromoglycate and a nitroindanedione, Clin exp, Immunol, 21, 419, 1975) to a dilution of 1:32 to 1:64 persisting for at least 72 hours after sensitisation.
Rats were given intraperitoneal injections of 2 ml of a 1:5 dilution of the rat anti-serum in isotonic saline. Two hours later 0.3 ml of a 5% solution of Pontamine Sky Blue (Raymond A. Lamb, London) in isotonic saline was injected intravenously, followed by an intraperitoneal injection of the test compound in 1 ml of saline; (control rats received 1 ml of saline); followed 30 seconds later by an intraperitoneal injection of 5 ml of a Tyrode solution containing 50 μg/ml heparin and 0.4 mg/ml of ovalbumin. The concentrations of the compounds were quoted as those in the 6 ml of fluid injected intraperitoneally. Exactly 5 minutes after challenge the rats were stunned and bled and their peritoneal fluids were collected by opening their peritoneal cavities over funnels into polycarbonate tubes in ice. The supernatants were separated from the cellular residue by centrifuging at 150 g for 5 minutes and any samples obviously contaminated with blood were discarded for estimattion of dye, histamine and SRS-A. Groups of at least 5 rats were used for each dose of compound and the treatments were randomised.
Collected peritoneal fluids were immediately cooled to 0° C. and centrifuged and the supernatant fluids assayed for dye within 2 hours. 0.5 ml samples of the supernatants were added to 1 ml of 12% trichloracetic acid and stored at -20° C. and used to assay for histamine. The remainders of the supernatant fluids were placed in a boiling water bath for 5 minutes and stored frozen at -20° C. until assayed for SRS-A.
The optical densities (OD) at 625 nm of the supernatants were determined. Samples were taken from supernatants with an OD greater than 2 and diluted in Tyrode's solution before reading.
Histamine was assayed using an automated spectrofluorimetric system (Technicon Autoanalyser) by a method similar to that of Evans, D.P., Lewis, J. A. and Thomson, D. S.; (An automated fluorimetric assay for the rapid determination of histamine in biological fluids. Life Sci 12,327, 1973). […]

[2] = target: T1, histamine on isolated guinea pig ileum (Cavia porcellus, UniProt P31389); assay: Antihistamine activity (in vitro): antagonism of the spasmogenic effects of histamine on isolated guinea pig ileum; conditions: Tyrode solution, 30° C., antagonist 5-640 ng/ml, several assays per compound
T1 construct: strips of terminal guinea pig ileum suspended in a 4 ml capacity organ bath; from tissue; host or cells: terminal ileum strips of guinea pig (Dunkin Hartley male white guinea pigs)
T1 sequence (P31389 whole entry): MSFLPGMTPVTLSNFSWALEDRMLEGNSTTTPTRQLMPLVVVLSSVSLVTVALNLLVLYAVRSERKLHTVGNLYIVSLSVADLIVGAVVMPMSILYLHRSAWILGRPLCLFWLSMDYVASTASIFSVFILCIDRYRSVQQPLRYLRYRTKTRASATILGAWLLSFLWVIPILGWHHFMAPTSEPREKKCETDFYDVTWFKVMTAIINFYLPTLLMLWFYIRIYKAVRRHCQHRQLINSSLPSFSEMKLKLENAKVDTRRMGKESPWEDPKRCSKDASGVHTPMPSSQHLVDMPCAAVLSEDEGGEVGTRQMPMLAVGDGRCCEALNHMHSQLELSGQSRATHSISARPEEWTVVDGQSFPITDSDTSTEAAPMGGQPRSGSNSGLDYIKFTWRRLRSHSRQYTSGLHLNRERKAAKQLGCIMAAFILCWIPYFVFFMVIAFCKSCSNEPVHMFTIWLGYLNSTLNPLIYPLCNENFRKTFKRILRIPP
Procedure: (b) antagonise the spasmogenic effects of histamine on isolated guinea pig ileum.
as §1
The anti-histamine activity of these compounds were measured in terms of pA2 values on guinea pig ileum using the method described by Arunlakshana, O. and Schild, H. O. (Brit J Pharm, 14, 1959, 48).
The pA2 is defined as the negative logarithm of the molar concentration of antagonist that will reduce the response of a double dose of agonist to that of a single dose.
Assays were carried out using strips of terminal guinea pig ileum suspended in a 4 ml capacity organ bath. The ileum was immersed in aerated Tyrode solution at a temperature of 30° C. and a tension of 1 gm was applied to the gut. Longitudinal contractions of the gut were recorded isotonically using a 2LD01 Devices transducer, a R2502-2 Devices optical wedge and a RE511.20 Smiths servoscribe flat bed recorder.
The tissue was constantly immersed in Tyrode solution washing was by fluid displacement from below. […]
The height of the response was measured in mms and a mean value calculated. […] The dose of histamine which produced a response of 100 mms were obtained for each curve from the graph and the ratio designated CR was calculated from [formula] […]

Structure (SMILES)	Dye concentration in peritoneal fluid as % of mean of controls ([1]; 2 × 10^-5 M injected ip)	Histamine concentration in peritoneal fluid as % of mean of controls ([1]; 2 × 10^-5 M injected ip)	SRS-A concentration in peritoneal fluid as % of mean of controls ([1]; 2 × 10^-5 M injected ip)	Dye concentration in peritoneal fluid as % of mean of controls ([1]; 2 × 10^-6 M injected ip)	Histamine concentration in peritoneal fluid as % of mean of controls ([1]; 2 × 10^-6 M injected ip)	SRS-A concentration in peritoneal fluid as % of mean of controls ([1]; 2 × 10^-6 M injected ip)	Dye concentration in peritoneal fluid as % of mean of controls ([1]; 10^-5 M injected ip)	Histamine concentration in peritoneal fluid as % of mean of controls ([1]; 10^-5 M injected ip)	SRS-A concentration in peritoneal fluid as % of mean of controls ([1]; 10^-5 M injected ip)	Dye concentration in peritoneal fluid as % of mean of controls ([1]; 10^-6 M injected ip)	Histamine concentration in peritoneal fluid as % of mean of controls ([1]; 10^-6 M injected ip)	SRS-A concentration in peritoneal fluid as % of mean of controls ([1]; 10^-6 M injected ip)	Dye concentration in peritoneal fluid as % of mean of controls ([1]; 10^-7 M injected ip)	Histamine concentration in peritoneal fluid as % of mean of controls ([1]; 10^-7 M injected ip)	SRS-A concentration in peritoneal fluid as % of mean of controls ([1]; 10^-7 M injected ip)	Kb ([2]; read-out: pA2 values obtained in different assays (converted))	pA2 values obtained in different assays [2]
O=C1c2cc(OCCCN3CCN(Cc4ccc(Cl)cc4)CC3)ccc2C(=O)c2[nH]nnc21 [Example 1, 6-{3-[4-(4-Chlorobenzyl)-1-piperazinyl]propyloxy}-4,9-dihydro-4,9-dioxo-1H-naphtho[2,3-d]-v-triazole]	29 ± 2 % of mean of controls	16 ± 2 % of mean of controls	75 ± 13 % of mean of controls	47 ± 6 % of mean of controls	23 ± 3 % of mean of controls	119 ± 25 % of mean of controls	38 ± 3 % of mean of controls	17 ± 3 % of mean of controls	39 ± 8 % of mean of controls	54 ± 6 % of mean of controls	27 ± 5 % of mean of controls	65 ± 18 % of mean of controls	75 ± 7 % of mean of controls	90 ± 16 % of mean of controls	109 ± 18 % of mean of controls	1 nM and 0.501 nM (2×) and 1.26 nM	
O=C1c2cc(OCCCN3CCN(Cc4ccccc4Cl)CC3)ccc2C(=O)c2[nH]nnc21 [Example 3, 6-{3-[4-(2-Chlorobenzyl)-1-piperazinyl]propyloxy}-4,9-dihydro-4,9-dioxo-1H-naphtho[2,3-d]-v-triazole]																	9.1 and 9.0
O=C1c2cccc(OCCCN3CCN(Cc4ccc(Cl)cc4)CC3)c2C(=O)c2nn[nH]c21 [Example 4, 5-{3-[4-(4-Chlorobenzyl)-1-piperazinyl]-propyloxy}-4,9-dihydro-4,9-dioxo-1H-naphtho-[2,3-d]-v-triazole]							43 ± 2 % of mean of controls	10 ± 1 % of mean of controls		60 ± 11 % of mean of controls	27 ± 4 % of mean of controls		85 ± 9 % of mean of controls	67 ± 8 % of mean of controls			
